According to US9255110B2 (Hoffmann-La Roche Inc., priority 2010, dated 2016):
Counter-ions that a name gives are not always drawn.

What was measured:
Format in all cases: biochemical
[1] = biological target: IRAK-4 (Homo sapiens (Human), UniProt Q9NWZ3); assay: In vitro IRAK-4 kinase assay; settings: purified recombinant IRAK-4, 50 uM ATP, 33P peptide phosphorylation
Method in brief: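 Recombinant IRAK-4 or IRAK-1 incubated with 250 uM synthetic peptide in MOPS pH7.2 kinase buffer with 50 uM ATP, 20 mM MgCl2 and γ-33P ATP for the indicated time. Phosphorylated peptide captured on phosphocellulose, washed with phosphoric acid, quantified by scintillation counting.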

[2] = biological target: human full length SYK (Homo sapiens (Human), UniProt P43405); assay: In vitro SYK kinase assay; settings: 20 uM ATP, 33P peptide phosphorylation
Experimental: Spleen tyrosine kinase (SYK) is a tyrosine kinase that plays an important role in B cell signal transduction. SYK activity is measured by phosphorylation of a peptide substrate (Biotin-[…]) with [gamma-^33P] ATP. The enzyme reaction was conducted at 20 uM ATP with 0.05 uCi [gamma-^33P]ATP (2 uCi for 40 ul assay) and 10 uM peptide substrate at final volume of 40 ul in buffer containing 50 mM Hepes, pH 7.2, 1 mM dithiothreitol, 10 mM MgCl2, 100 uM Na3VO4, 0.1% BSA and 10% DMSO. The enzyme assay was carried out with human full length SYK in the presence or absence of ten compound concentrations. SYK and compound were pre-incubated for 10 minutes. Then, the enzymatic reaction was initiated by addition of ATP and peptide substrate. The reaction mixture was incubated at room temperature for 30 minutes. At the end of incubation, the reaction was terminated by transferring 25 ul of the reaction mixture to 100 ul of 10% streptavidin slurry containing 100 mM EDTA. The reaction product was captured on the affinity resin and sequentially washed on a filtration plate (Millipore, MABVNOB50) with 2M NaCl, 2M M NaCl in 1% phosphoric acid and water to remove free radio nucleotide. Then the incorporation of ^33P into peptide substrate was quantified on a microplate scintillation counter. Compound inhibition potency on SYK was measured by IC50 value generated from ten concentration inhibition curve fitted into the 3-parameter model: % inhibition=Maximum/(1+(IC50/[Inhibitor])^slope). Data were analyzed on Microsoft Excel for parameter estimation.

[3] = biological target: IRAK-1 (Homo sapiens (Human), UniProt P51617); assay: In vitro IRAK-1 kinase assay; settings: purified recombinant IRAK-1, 50 uM ATP, 33P peptide phosphorylation
Experimental: Purified recombinant IRAK-4 protein was incubated with 250 uM synthetic peptide ([…]) in 30 ul of kinase buffer including (20 mM MOPS pH7.2, 25 mM beta glycerol phosphate, 5 mM EGTA, 1 mM sodium orthovanadate, 1 mM DTT, 50 uM ATP, 20 mM MgCl2, 10 uCi γ-^33P, 0.1% BSA) for the indicated time. For purified recombinant IRAK-1 protein kinase assay, 50 uM ATP was used. A 25 ul aliquot of the reaction mixture was transferred on to p81 phosphocellulose squares (Upstate Biotechnology, Lake Placid, N.Y.). The assay squares were washed three times with 0.75% phosphoric acid and once with acetone. Enzyme activity was measured by determining the bound radioactivity by liquid scintillation counting.

Chain of IRAK-1 (P51617 whole entry, species assumed): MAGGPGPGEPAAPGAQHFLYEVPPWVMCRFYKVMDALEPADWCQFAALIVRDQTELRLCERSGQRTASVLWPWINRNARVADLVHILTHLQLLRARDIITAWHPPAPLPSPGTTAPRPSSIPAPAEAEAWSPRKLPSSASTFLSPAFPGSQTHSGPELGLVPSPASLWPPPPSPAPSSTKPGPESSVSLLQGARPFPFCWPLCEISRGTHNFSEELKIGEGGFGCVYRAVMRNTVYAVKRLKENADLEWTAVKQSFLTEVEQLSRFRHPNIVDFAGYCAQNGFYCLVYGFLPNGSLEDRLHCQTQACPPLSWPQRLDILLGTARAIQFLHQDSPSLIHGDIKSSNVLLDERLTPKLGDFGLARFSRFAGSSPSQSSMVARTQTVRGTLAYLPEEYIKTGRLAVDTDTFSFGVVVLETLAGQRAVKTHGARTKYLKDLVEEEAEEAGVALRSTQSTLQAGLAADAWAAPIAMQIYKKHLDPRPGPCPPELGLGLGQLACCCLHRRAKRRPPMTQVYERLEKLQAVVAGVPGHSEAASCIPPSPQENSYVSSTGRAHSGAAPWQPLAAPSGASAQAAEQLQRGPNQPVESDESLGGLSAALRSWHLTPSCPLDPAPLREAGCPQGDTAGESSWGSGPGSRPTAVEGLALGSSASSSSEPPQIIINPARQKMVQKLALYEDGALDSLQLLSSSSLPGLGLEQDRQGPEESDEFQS
Chain of IRAK-4 (Q9NWZ3 whole entry, species assumed): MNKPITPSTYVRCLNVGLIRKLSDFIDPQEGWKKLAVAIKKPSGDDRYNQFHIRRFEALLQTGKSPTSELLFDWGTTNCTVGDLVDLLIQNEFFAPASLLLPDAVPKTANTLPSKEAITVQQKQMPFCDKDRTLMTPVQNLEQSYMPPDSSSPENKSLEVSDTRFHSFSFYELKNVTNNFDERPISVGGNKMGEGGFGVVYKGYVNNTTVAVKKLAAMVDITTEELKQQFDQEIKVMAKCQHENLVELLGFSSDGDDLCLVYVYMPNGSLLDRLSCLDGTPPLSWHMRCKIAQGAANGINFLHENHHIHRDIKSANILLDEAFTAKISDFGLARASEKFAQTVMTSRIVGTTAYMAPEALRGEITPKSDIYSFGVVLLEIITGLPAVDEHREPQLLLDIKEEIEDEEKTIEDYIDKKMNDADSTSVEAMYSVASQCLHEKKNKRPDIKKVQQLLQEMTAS

SMILES	IC50 [1]	IC50 [2]	IC50 [3]
COc1cc2ncccc2cc1NC(=O)c1csc2cnc(NCCN)nc12	0.01 µM	0.017 µM	0.712 µM
CC(O)CC(C)Oc1cc2ncccc2cc1NC(=O)c1csc2cncnc12 (stereo not shown)	0.024 µM	0.449 µM	0.76 µM
NC(=O)C1CCN(c2ccc(Cl)cc2NC(=O)c2cnn3cccnc23)CC1 [Example 40, Pyrazolo[1,5-alpha]pyrimidine-3-carboxylic acid [2-(4-carbamoyl-piperidin-1-yl)-5-chloro-phenyl]-amide]	0.069 µM	0.5 µM	–
COc1cc2ncccc2cc1NC(=O)c1csc2cnc(NC3CC3)nc12 [Example 43, 2-Cyclopropylamino-thieno[3,2-d]pyrimidine-7-carboxylic acid (7-methoxy-quinolin-6-yl)-amide]	0.074 µM	0.81 µM	0.575 µM
COc1cc2ncccc2cc1NC(=O)c1csc2cnc(NCCO)nc12 [Example 45, 2-(2-Hydroxy-ethylamino)-thieno[3,2-d]pyrimidine-7-carboxylic acid (7-methoxy-quinolin-6-yl)-amide]	0.076 µM	0.216 µM	–
NCCCOc1cc2ncccc2cc1NC(=O)c1csc2cncnc12 [Example 51, Thieno[3,2-d]pyrimidine-7-carboxylic acid [7-(3-amino-propoxy)-quinolin-6-yl]-amide]	0.103 µM	0.376 µM	0.529 µM
COc1ccc(Cl)cc1NC(=O)c1csc2cnc(NCCN)nc12 [Example 53]	0.107 µM	0.35 µM	0.813 µM
O=C(Nc1cc2cccnc2cc1O[C@@H]1CC[C@H](O)C1)c1csc2cncnc12 [Example 54, hydrochloride]	0.122 µM	0.5 µM	–
O=C(Nc1cc2ccccc2cc1OC1CCC(O)CC1)c1cnn2cccnc12 (stereo not drawn) [Example 55, Pyrazolo[1,5-alpha]pyrimidine-3-carboxylic acid [3-(4-hydroxy-cyclohexyloxy)-napthalen-2-yl]-amide]	0.124 µM	0.628 µM	0.817 µM
O=C(Nc1cc(Cl)ccc1OC1CCC(O)C1)c1cnn2cccnc12 (stereo not drawn) [Example 83, Pyrazolo[1,5-alpha]pyrimidine-3-carboxylic acid [5-chloro-2-(3-hydroxy-cyclopentyloxy)-phenyl]-amide]	0.361 µM	0.656 µM	–
O=C(Nc1cc(Cl)ccc1OC1CCC(O)CC1)c1cnn2cccnc12 (stereo not drawn) [Example 90, Pyrazolo[1,5-alpha]pyrimidine-3-carboxylic acid [5-chloro-2-(4-hydroxy-cyclohexyloxy)-phenyl]-amide]	0.459 µM	0.806 µM	–
